Reference: US9474790B2, “Stable, protracted GLP-1/glucagon receptor co-agonists for medical use” (Novo Nordisk A/S, priority 2013, dated 2016)
pEC50: −log10 of the molar value. Numbered stars: 1 amine (or outer) side, 2 acyl side, 3 side chain; on linkers, the order of the positions; unused ones are H or OH. Square brackets hold non-standard residues; d marks the D form. Side chains are listed from the residue outwards. Peptide text beside a SMILES is read from it. * marks the point of attachment. C18 diacid = O=C(O)CCCCCCCCCCCCCCCCC(=O)*; γGlu = O=C(O)[C@H](CCC(=O)[*:2])N[*:1]; AEEA = NCCOCCOCC(=O)O; Aib = CC(C)(N)C(=O)O

What was measured:
[1] = Thioflavin T (ThT) fibrillation assay for physical stability; assay type: physicochemical; details: 250 μM in 10 mM HEPES buffer, pH 7.5, 37° C., shaking 960 rpm
Procedure, shortened: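 Fibrillation was followed by ThT (1 μM) fluorescence every 20 min, 444/485 nm, for 250 μM peptide in 10 mM HEPES pH 7.5 shaken at 960 rpm, 37° C. Lag time (t0−2τ) and apparent rate constant (1/τ) come from a sigmoidal fit. Recovery is % of initial concentration remaining soluble after centrifugation and filtration (RP-HPLC).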

human GLP-1 receptor = molecular target: T1, human GLP-1 receptor (Homo sapiens, UniProt P43220); experiment: GLP-1 receptor potency, CRE luciferase reporter gene assay in BHK cells; assay type: cell-based; details: BHK cells expressing human GLP-1 receptor, read-out: EC50 GLP-1R
T1 construct: expressed in transfected cells; host or cells: BHK cells (parent BHKTS13), clone FCW467-12A/KZ10-1, with CRE luciferase
T1 sequence (P43220 24-463): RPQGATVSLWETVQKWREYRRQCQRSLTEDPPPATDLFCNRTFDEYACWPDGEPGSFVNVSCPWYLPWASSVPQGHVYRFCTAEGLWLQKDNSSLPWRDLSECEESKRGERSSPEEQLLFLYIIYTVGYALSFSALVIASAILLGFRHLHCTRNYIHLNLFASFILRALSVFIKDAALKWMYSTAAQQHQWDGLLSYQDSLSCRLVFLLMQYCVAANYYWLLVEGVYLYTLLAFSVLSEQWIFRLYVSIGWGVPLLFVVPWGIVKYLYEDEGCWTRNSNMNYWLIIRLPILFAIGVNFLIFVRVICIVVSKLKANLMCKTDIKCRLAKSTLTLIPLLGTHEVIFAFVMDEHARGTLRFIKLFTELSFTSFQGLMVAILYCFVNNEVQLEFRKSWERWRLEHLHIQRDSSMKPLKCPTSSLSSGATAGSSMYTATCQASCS
Procedure, shortened: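 Potency as cAMP-driven firefly luciferase signal after 3 h, 37° C exposure to 10-fold dilutions (final 1×10EE-13–1×10EE-6 M). Stable hGLP-1R/CRE-luc BHK clone, 5×10EE3 cells/well, medium containing 2% ovalbumin and 0.2% Pluronic F-68; EC50 (pM) from variable-slope non-linear regression.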

Row | THT assay Lag time (Ex. 76) [1] | pEC50 (human GLP-1 receptor) | SMILES
1 | 45 h | 10.83 | CC(C)C[C@H](NC(=O)[C@H](CC(C)C)NC(=O)[C@H](Cc1c[nH]c2ccccc12)NC(=O)[C@H](CCC(N)=O)NC(=O)[C@@H](NC(=O)[C@H](Cc1ccccc1)NC(=O)[C@H](CCC(=O)O)NC(=O)[C@H](CCCNC(=N)N)NC(=O)[C@H](C)NC(=O)[C@H](CCCNC(=N)N)NC(=O)[C@H](CCCNC(=N)N)NC(=O)[C@H](CO)NC(=O)[C@H](CC(=O)O)NC(=O)[C@H](CC(C)C)NC(=O)[C@H](Cc1ccc(O)cc1)NC(=O)[C@H](CCCCN)NC(=O)[C@H](CO)NC(=O)[C@H](CC(C)C)NC(=O)[C@H](CC(=O)O)NC(=O)[C@H](CO)NC(=O)[C@@H](NC(=O)[C@H](Cc1ccccc1)NC(=O)[C@@H](NC(=O)CNC(=O)[C@H](CCC(N)=O)NC(=O)C(C)(C)NC(=O)[C@@H](N)Cc1c[nH]cn1)[C@@H](C)O)[C@@H](C)O)C(C)C)C(=O)N[C@@H](CC(N)=O)C(=O)N[C@@H](CCCCNC(=O)CC[C@H](NC(=O)CC[C@H](NC(=O)COCCOCCNC(=O)COCCOCCNC(=O)CC[C@H](NC(=O)CCCCCCCCCCCCCCCCC(=O)O)C(=O)O)C(=O)O)C(=O)O)C(N)=O [Example 12, N^ε29-[(4S)-4-carboxy-4-[[(4S)-4-carboxy-4-[[2-[2-[2-[[2-[2-[2-[[(4S)-4-carboxy-4-(17-carboxyheptadecanoylamino)butanoyl]amino]ethoxy]ethoxy]acetyl]amino]ethoxy]ethoxy]acetyl]amino]butanoyl]amino]butanoyl]-[Aib2,Leu10,Arg20,Glu21,Leu27,Lys29]-Glucagon amide] (H-H[Aib]QGTFTSDLSKYLDSRRAREFVQWLLNK([γGlu-γGlu-AEEA-AEEA-γGlu-C18 diacid])-NH2)
2 | 45 h | 11.30 | CC(C)C[C@H](NC(=O)[C@H](Cc1ccc(O)cc1)NC(=O)[C@H](CCCCN)NC(=O)[C@H](CO)NC(=O)[C@H](CC(C)C)NC(=O)[C@H](CC(=O)O)NC(=O)[C@H](CO)NC(=O)[C@@H](NC(=O)[C@H](Cc1ccccc1)NC(=O)[C@@H](NC(=O)CNC(=O)[C@H](CCC(N)=O)NC(=O)C(C)(C)NC(=O)[C@@H](N)Cc1c[nH]cn1)[C@@H](C)O)[C@@H](C)O)C(=O)N[C@@H](CC(=O)O)C(=O)N[C@@H](C)C(=O)N[C@@H](CCCNC(=N)N)C(=O)N[C@@H](CCCNC(=N)N)C(=O)N[C@@H](C)C(=O)N[C@@H](CCCNC(=N)N)C(=O)N[C@@H](CCC(=O)O)C(=O)N[C@@H](Cc1ccccc1)C(=O)N[C@H](C(=O)N[C@@H](CCC(N)=O)C(=O)N[C@@H](Cc1c[nH]c2ccccc12)C(=O)N[C@@H](CC(C)C)C(=O)N[C@@H](CC(C)C)C(=O)N[C@@H](CCCCNC(=O)CC[C@H](NC(=O)CC[C@H](NC(=O)COCCOCCNC(=O)COCCOCCNC(=O)CC[C@H](NC(=O)CCCCCCCCCCCCCCCCC(=O)O)C(=O)O)C(=O)O)C(=O)O)C(=O)N[C@H](C(N)=O)[C@@H](C)O)C(C)C [Example 43, N^ε28-[(4S)-4-carboxy-4-[[(4S)-4-carboxy-4-[[2-[2-[2-[[2-[2-[2-[[(4S)-4-carboxy-4-(17-carboxyheptadecanoylamino)butanoyl]amino]ethoxy]ethoxy]acetyl]amino]ethoxy]ethoxy]acetyl]amino]butanoyl]amino]butanoyl]-[Aib2,Leu10,Ala16,Arg20,Glu21,Leu27,Lys28]-Glucagon amide] (H-H[Aib]QGTFTSDLSKYLDARRAREFVQWLLK([γGlu-γGlu-AEEA-AEEA-γGlu-C18 diacid])T-NH2; N-terminus assumed)
3 | – | 11.10 | CC(C)C[C@H](NC(=O)[C@H](Cc1ccc(O)cc1)NC(=O)[C@H](CCCNC(=N)N)NC(=O)[C@H](CO)NC(=O)[C@H](CC(C)C)NC(=O)[C@H](CC(=O)O)NC(=O)[C@H](CO)NC(=O)[C@@H](NC(=O)[C@H](Cc1ccccc1)NC(=O)[C@@H](NC(=O)CNC(=O)[C@H](CCC(N)=O)NC(=O)C(C)(C)NC(=O)[C@@H](N)Cc1c[nH]cn1)[C@@H](C)O)[C@@H](C)O)C(=O)N[C@@H](CC(=O)O)C(=O)N[C@@H](C)C(=O)N[C@@H](CCCNC(=N)N)C(=O)N[C@@H](CCCNC(=N)N)C(=O)N[C@@H](C)C(=O)N[C@@H](CCCNC(=N)N)C(=O)N[C@@H](CC(=O)O)C(=O)N[C@@H](Cc1ccccc1)C(=O)N[C@H](C(=O)N[C@@H](CCC(N)=O)C(=O)N[C@@H](Cc1c[nH]c2ccccc12)C(=O)N[C@@H](CC(C)C)C(=O)N[C@@H](CC(C)C)C(=O)N[C@@H](CCCCNC(=O)CC[C@H](NC(=O)CC[C@H](NC(=O)CC[C@H](NC(=O)CCCCCCCCCCCCCCCCC(=O)O)C(=O)O)C(=O)O)C(=O)O)C(=O)N[C@H](C(N)=O)[C@@H](C)O)C(C)C [Example 62, N^ε28-[(4S)-4-carboxy-4-[[(4S)-4-carboxy-4-[[(4S)-4-carboxy-4-(17-carboxyheptadecanoylamino)butanoyl]amino]butanoyl]amino]butanoyl]-[Aib2,Leu10,Arg12,Ala16,Arg20,Leu27,Lys28]-Glucagon amide] (H-H[Aib]QGTFTSDLSRYLDARRARDFVQWLLK([γGlu-γGlu-γGlu-C18 diacid])T-NH2; N-terminus assumed)
4 | 7 h | – | CC(C)C[C@H](NC(=O)[C@H](Cc1ccc(O)cc1)NC(=O)[C@H](CCCCN)NC(=O)[C@H](CO)NC(=O)[C@H](CC(C)C)NC(=O)[C@H](CC(=O)O)NC(=O)[C@H](CO)NC(=O)[C@@H](NC(=O)[C@H](Cc1ccccc1)NC(=O)[C@@H](NC(=O)CNC(=O)[C@H](CCC(N)=O)NC(=O)C(C)(C)NC(=O)[C@@H](N)Cc1c[nH]cn1)[C@@H](C)O)[C@@H](C)O)C(=O)N[C@@H](CC(=O)O)C(=O)N[C@@H](CCCCNC(=O)CC[C@H](NC(=O)CC[C@H](NC(=O)COCCOCCNC(=O)COCCOCCNC(=O)CC[C@H](NC(=O)CCCCCCCCCCCCCCCCC(=O)O)C(=O)O)C(=O)O)C(=O)O)C(=O)N[C@@H](CCCNC(=N)N)C(=O)N[C@@H](CCCNC(=N)N)C(=O)N[C@@H](C)C(=O)N[C@@H](CCCNC(=N)N)C(=O)N[C@@H](CCC(=O)O)C(=O)N[C@@H](Cc1ccccc1)C(=O)N[C@H](C(=O)N[C@@H](CCC(N)=O)C(=O)N[C@@H](Cc1c[nH]c2ccccc12)C(=O)N[C@@H](CC(C)C)C(=O)N[C@@H](CC(C)C)C(=O)N[C@@H](CC(N)=O)C(=O)N[C@H](C(N)=O)[C@@H](C)O)C(C)C [Example 10, N^ε16-[(4S)-4-carboxy-4-[[(4S)-4-carboxy-4-[[2-[2-[2-[[2-[2-[2-[[(4S)-4-carboxy-4-(17-carboxyheptadecanoylamino)butanoyl]amino]ethoxy]ethoxy]acetyl]amino]ethoxy]ethoxy]acetyl]amino]butanoyl]amino]butanoyl]-[Aib2,Leu10,Lys16,Arg20,Glu21,Leu27]-Glucagon amide] (H-H[Aib]QGTFTSDLSKYLDK([γGlu-γGlu-AEEA-AEEA-γGlu-C18 diacid])RRAREFVQWLLNT-NH2; N-terminus assumed)
